In patent US12180192B2, “Modulators of THR-β and methods of use thereof” (ALIGOS THERAPEUTICS, INC., priority 2019, dated 2024):
Where two headings read alike, the source gives them in different places.

How the values were obtained:
[1] = test system: CPT1A gene expression in Huh-7 cells; experiment: Huh-7 differential gene expression, CPT1A RT-qPCR (Assay 3); format: cell-based; conditions: Homo sapiens, Huh-7, 24 h; for EC50: read-out: Activity category Assay 3 EC50; for Emax: read-out: Activity category Assay 3 Emax
Procedure: Huh-7 Differential Gene Expression (Assay 3)
Fetal bovine serum (FBS) was incubated with washed resin (50 mg resin/mL FBS; resin weight is dry weight of resin prior to washing) for 5 hr at room temperature on a rotor. The FBS was separated from the resin via centrifugation and incubated with new, washed resin for 18 h at room temperature on a rotor.
Cell Culture and Drug Treatment
Huh-7 cells were cultured in DMEM (10-013-CM, Corning) supplemented with 10% FBS and 1% Pen-Strep at 37° C. under 5% C02. When 70-80% confluence was reached, the cells were removed by trypsinization. The medium was aspirated from the cell culture dish, the cell monolayer was washed with 1×PBS, and 0.05% trypsin, 0.53 mM EDTA (25-052-CV, Corning) solution was added to the dish. After 3 min incubation, the cells were detached completely by repeatedly pipetting solution onto the monolayer. Equal volume of DMEM supplemented with 10% rFBS and 1% Pen-Strep (TH-depleted DMEM) was added to the dish to inactivate the trypsin. The cell suspension was centrifuged at 350×g at room temperature for 3 min. The supernatant was aspirated out and the cell pellet was resuspended in TH-depleted DMEM. […] After 24 hr incubation, the media was replaced with treatment media. All compounds were serially diluted in DMSO and final concentrations were reached by dilution in TH-depleted DMEM (0.1% DMSO). The cells were incubated in treatment media for 24 hr. Treatments were performed in biological duplicates.
After 24 hr in treatment media, the cells were lysed directly on the culture plates and cDNA was produced using the TaqMan™ Fast Advanced Cells-to-CT™ Kit (A35374, Invitrogen) and following the manufacturer's protocol. RT-qPCR for CPT1A (Hs00912671_m1) and two housekeeping genes, ACTB (Hs01060665_g1) and TFG (Hs02832013_g1), was performed using TaqMan™ Fast Advanced Master Mix. RT-qPCR reactions were run on the qTOWER^3 84 G (Analytik Jena) in technical duplicates.
ΔRn values were obtained from the qPCRsoft384 1.0 software and CPT1A gene expression was quantified via the 2-ΔΔCt method. Dose-response curves were generated using GraphPad Prism 8 using four parameter logistic equation without top constraint to derive EC50 and Emax.

THR alpha = biological target: T1, THR alpha (Homo sapiens, UniProt P10827); experiment: HEK293T THR alpha/RXR luciferase reporter assay (Assay 2); format: cell-based; conditions: Assay 2; for Emax: HEK-293T, Table 5, THRα, read-out: Activity category Assay 2 THRα (Emax); for EC50: Table 4, THR-alpha, read-out: Activity category Assay 2 (EC50, THR-alpha agonist activity)
T1 construct: expressed in transfected cells; host or cells: HEK293T (ATCC CRL-3216)
T1 sequence (P10827 1-410 isoform P10827-2): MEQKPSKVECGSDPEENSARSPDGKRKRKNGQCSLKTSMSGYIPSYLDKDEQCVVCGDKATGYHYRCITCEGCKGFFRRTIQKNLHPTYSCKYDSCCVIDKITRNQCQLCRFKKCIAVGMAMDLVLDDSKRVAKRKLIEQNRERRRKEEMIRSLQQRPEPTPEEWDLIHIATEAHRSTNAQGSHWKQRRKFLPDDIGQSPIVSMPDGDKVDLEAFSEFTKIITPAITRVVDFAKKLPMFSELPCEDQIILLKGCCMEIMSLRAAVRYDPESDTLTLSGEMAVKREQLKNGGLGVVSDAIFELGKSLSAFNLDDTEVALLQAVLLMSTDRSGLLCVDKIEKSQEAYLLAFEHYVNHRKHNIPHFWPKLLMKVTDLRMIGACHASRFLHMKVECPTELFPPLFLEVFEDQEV
T1 sequence (P19793 1-462 partner): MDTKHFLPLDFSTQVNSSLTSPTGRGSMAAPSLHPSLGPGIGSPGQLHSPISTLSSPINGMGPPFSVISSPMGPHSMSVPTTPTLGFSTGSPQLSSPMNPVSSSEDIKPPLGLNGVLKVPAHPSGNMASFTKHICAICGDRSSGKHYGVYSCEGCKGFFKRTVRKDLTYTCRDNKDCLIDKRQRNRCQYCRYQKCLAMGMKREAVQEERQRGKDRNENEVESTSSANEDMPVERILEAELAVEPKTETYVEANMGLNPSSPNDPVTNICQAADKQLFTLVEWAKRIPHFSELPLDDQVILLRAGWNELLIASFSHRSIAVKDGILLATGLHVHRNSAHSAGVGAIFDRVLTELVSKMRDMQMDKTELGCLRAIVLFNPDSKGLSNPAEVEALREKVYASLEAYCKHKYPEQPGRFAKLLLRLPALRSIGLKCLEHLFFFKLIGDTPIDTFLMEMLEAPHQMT
Procedure, shortened: (§1)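 HEK293T cells transiently transfected with TRE-luciferase reporter, RXR, and THR alpha or THR beta plasmid; ten five-fold compound dilutions from DMSO added for 18-24 h. One-Glo luminescence read; percent agonism normalized between negative and positive controls.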

[2] = biological target: T2, human thyroid receptor alpha ligand-binding domain (LBD) (Homo sapiens, UniProt P10827); experiment: TR-FRET thyroid receptor alpha coactivator assay (THR biochemical assay, Assay 1); conditions: for EC50: Table 4, THR-alpha, read-out: Activity category Assay 1 (EC50, THR-alpha agonist activity); for Emax: Table 5, THRα, read-out: Activity category Assay 1 THRα (Emax)
T2 construct: purchased Invitrogen
Procedure, shortened: (§2)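 GST-tagged human TRβ or TRα LBD, 1 nM final (stated for β), with fluorescein-SRC2-2 coactivator peptide (200 nM) and Tb-anti-GST antibody (2 nM). Agonists serially diluted, 1% DMSO final. 1 h incubation at rt in the dark; TR-FRET read as rise in fluorescein and drop in terbium emission.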

THR beta = biological target: T3, THR beta (Homo sapiens, UniProt P10828); experiment: HEK293T THR beta/RXR luciferase reporter assay (Assay 2); format: cell-based; conditions: for EC50: THR-beta, HEK293T reporter assay, read-out: Activity category Assay 2 (EC50, THR-beta agonist); for Emax: HEK-293T, Table 5, Assay 2, THRβ, read-out: Activity category Assay 2 THRβ (Emax)
T3 construct: expressed in transfected cells; host or cells: HEK293T (ATCC CRL-3216)
T3 sequence (P10828 1-461): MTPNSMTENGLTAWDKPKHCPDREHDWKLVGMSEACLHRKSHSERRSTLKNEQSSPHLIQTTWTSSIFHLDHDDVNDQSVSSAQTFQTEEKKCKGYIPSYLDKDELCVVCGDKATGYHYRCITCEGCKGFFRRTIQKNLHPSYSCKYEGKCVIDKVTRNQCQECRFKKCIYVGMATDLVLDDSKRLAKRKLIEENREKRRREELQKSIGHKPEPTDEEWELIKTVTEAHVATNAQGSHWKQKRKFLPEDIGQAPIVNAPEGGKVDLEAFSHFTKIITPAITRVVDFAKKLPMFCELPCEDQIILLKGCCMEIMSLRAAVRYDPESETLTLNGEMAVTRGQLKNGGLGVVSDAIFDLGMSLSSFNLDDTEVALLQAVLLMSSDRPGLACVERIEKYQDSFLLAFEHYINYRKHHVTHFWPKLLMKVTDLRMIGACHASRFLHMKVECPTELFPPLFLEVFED
T3 sequence (P19793 1-462 partner): T1 sequence (P19793 1-462 partner)
Procedure, shortened: as §1

[3] = biological target: T4, human thyroid receptor beta ligand-binding domain (LBD) (Homo sapiens, UniProt P10828); experiment: TR-FRET thyroid receptor beta coactivator assay (THR biochemical assay, Assay 1); conditions: for EC50: THR-beta, TR-FRET coactivator assay, read-out: Activity category Assay 1 (EC50, THR-beta agonist); for Emax: Table 5, Assay 1, THRβ, read-out: Activity category Assay 1 THRβ (Emax)
T4 construct: purchased Invitrogen
T4 sequence (P10828 217-461 limits assumed): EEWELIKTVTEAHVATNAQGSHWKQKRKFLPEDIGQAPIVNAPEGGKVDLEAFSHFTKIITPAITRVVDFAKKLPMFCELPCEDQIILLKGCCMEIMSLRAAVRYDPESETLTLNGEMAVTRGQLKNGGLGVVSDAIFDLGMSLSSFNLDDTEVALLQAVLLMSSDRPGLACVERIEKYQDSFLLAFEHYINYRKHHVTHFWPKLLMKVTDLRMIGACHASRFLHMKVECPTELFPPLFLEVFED
Procedure, shortened: as §2

[4] = Table 6, Huh-7 cells, CPT1A, 24 hr treatment

EC50 [1, 4] [nM]	Emax (THR alpha) [%]	EC50 [2] [nM]	Emax [2] [%]	EC50 (THR beta) [nM]	EC50 [3] [nM]	Emax [3] [%]	EC50 (THR alpha) [nM]	Emax (THR beta) [%]	Structure (SMILES)	Emax [1, 4] [%]	EC50 [1] [nM]	Emax [1] [%]
< 100									Nc1nn(-c2cc(Cl)c(Oc3cc(C4CCCC4)c(=O)[nH]n3)c(Cl)c2)c(=O)[nH]c1=O [Compound 42, 6-amino-2-(3,5-dichloro-4-((5-cyclopentyl-6-oxo-1,6-dihydropyridazin-3-yl)oxy)phenyl)-1,2,4-triazine-3,5(2H,4H)-dione]	50 to 75		
	< 50	> 25000	< 50	250 to 1000	50 to 250	< 50	> 10000	< 50	Nc1nn(-c2cc(Cl)c(Oc3cc(C4Cc5ccccc5C4)c(=O)[nH]n3)c(Cl)c2)c(=O)[nH]c1=O [Compound 155]			
	< 50	50 to 250	< 50	50 to 250	< 50	< 50	1000 to 10000	50 to 75	Nc1nn(-c2cc(Cl)c(Oc3cc(C4CCc5ccccc54)c(=O)[nH]n3)c(Cl)c2)c(=O)[nH]c1=O (stereo not drawn) [Compound 156, 6-amino-2-(3,5-dichloro-4-[[5-(2,3-dihydro-1H-inden-1-yl)-6-oxo-1H-pyridazin-3-yl]oxy]phenyl)-4H-1,2,4-triazine-3,5-dione]			
	< 50	1000 to 25000	< 50	> 10000	1000 to 25000	< 50	> 10000	< 50	Nc1nn(-c2cc(Cl)c(Oc3cc(Cc4ccc(=O)[nH]n4)c(=O)[nH]n3)c(Cl)c2)c(=O)[nH]c1=O [Compound 160, 6-amino-2-[3,5-dichloro-4-([6-oxo-5-[(6-oxo-1H-pyridazin-3-yl)methyl]-1H-pyridazin-3-yl]oxy)phenyl]-4H-1,2,4-triazine-3,5-dione]			
	< 50	250 to 1000	< 50	1000 to 10000	250 to 1000	< 50	> 10000	< 50	Nc1nn(-c2cc(Cl)c(Oc3cc(Cc4ccc(O)cn4)c(=O)[nH]n3)c(Cl)c2)c(=O)[nH]c1=O [Compound 161, 6-amino-2-[3,5-dichloro-4-([5-[(5-hydroxypyridin-2-yl)methyl]-6-oxo-1H-pyridazin-3-yl]oxy)phenyl]-4H-1,2,4-triazine-3,5-dione]			

Continued, molecule first:

Structure (SMILES)	EC50 [1, 4] [nM]	Emax (THR alpha) [%]	EC50 [2] [nM]	Emax [2] [%]	EC50 (THR beta) [nM]	EC50 [3] [nM]	Emax [3] [%]	EC50 (THR alpha) [nM]	Emax (THR beta) [%]	Emax [1, 4] [%]	EC50 [1] [nM]	Emax [1] [%]
C#Cc1nn(-c2cc(Cl)c(Oc3cc(C(C)C)c(=O)[nH]n3)c(Cl)c2)c(=O)[nH]c1=O [Compound 11, 2-[3,5-dichloro-4-[(5-isopropyl-6-oxo-1H-pyridazin-3-yl)oxy]phenyl]-6-ethynyl-4H-1,2,4-triazine-3,5-dione]	< 100									> 75		
CC(C)c1cc(Oc2c(Cl)cc(-n3nc(CC(=O)O)c(=O)[nH]c3=O)cc2Cl)n[nH]c1=O [Compound 13, 2-(2-(3,5-dichloro-4-((5-isopropyl-6-oxo-1,6-dihydropyridazin-3-yl)oxy)phenyl)-3,5-dioxo-2,3,4,5-tetra-hydro-1,2,4-triazin-6-yl)acetic acid]	> 100									> 75		
Cc1cc2cc(Oc3c(Cl)cc(-n4nc(C#N)c(=O)[nH]c4=O)cc3Cl)ccc2[nH]c1=O [Compound 154, 2-[3,5-dichloro-4-[(3-methyl-2-oxo-1H-quinolin-6-yl)oxy]phenyl]-3,5-dioxo-1,2,4-triazine-6-carbonitrile]		< 50	> 25000	< 50	> 10000	50 to 250	< 50					
CC1(C)CN(c2cc(Oc3c(Cl)cc(-n4nc(N)c(=O)[nH]c4=O)cc3Cl)n[nH]c2=O)C1 [Compound 159, 6-amino-2-(3,5-dichloro-4-[[5-(3,3-dimethylazetidin-1-yl)-6-oxo-1H-pyridazin-3-yl]oxy]phenyl)-4H-1,2,4-triazine-3,5-dione]		< 50	250 to 1000	< 50	50 to 250	50 to 250	< 50	1000 to 10000	50 to 75			
N[C@@H](Cc1cc(I)c(Oc2ccc(O)c(I)c2)c(I)c1)C(=O)O [Compound T3, triiodothyronine, reference compound]											< 100	> 75
